Experimental findings from patent EP0312157A2, “Tetrapeptide renin inhibitors having a novel c-terminal amino acid” (Merck & Co., Inc., priority 1987, dated 1989) are described below.

Where a name gives a salt, the structure may show the parent alone.

The target of the assay is T1, renin (Homo sapiens, UniProt P00797).
T1 sequence (P00797 67-406): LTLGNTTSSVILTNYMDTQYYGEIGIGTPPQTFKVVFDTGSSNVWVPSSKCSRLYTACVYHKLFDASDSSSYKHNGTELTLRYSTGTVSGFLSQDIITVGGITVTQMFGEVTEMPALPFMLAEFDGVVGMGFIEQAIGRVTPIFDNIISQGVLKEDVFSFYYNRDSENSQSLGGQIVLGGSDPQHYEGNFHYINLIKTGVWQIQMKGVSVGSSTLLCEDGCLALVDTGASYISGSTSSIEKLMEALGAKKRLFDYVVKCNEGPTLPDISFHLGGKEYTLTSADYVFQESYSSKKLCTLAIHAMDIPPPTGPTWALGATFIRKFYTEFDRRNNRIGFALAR
The assay is described as follows: renin inhibition, IC50 (method not described). Format: biochemical.
With `CC(C)(C)OC(=O)N[C@@H](Cc1ccccc1)C(=O)N[C@@H](Cc1c[nH]cn1)C(=O)N[C@@H](CC1CCCCC1)[C@@H](O)CC(=O)N[C@@H](CCCCN)C(=O)NCc1ccncc1` [Example 1, N^α-t-butoxycarbonyl-L-Phenylalanyl-L-histidyl-(3S,4S)-4-amino-5-cyclohexyl-3-hydroxypentanoyl-L-lysyl-4-(aminomethyl)pyridine amide hydrochloride], half-maximal inhibition (IC50) required 38 nM. This counts as double-digit nanomolar.
In the case of `CC(C)(C)OC(=O)N[C@@H](Cc1ccccc1)C(=O)N[C@@H](Cc1c[nH]cn1)C(=O)N[C@@H](CC1CCCCC1)[C@@H](O)CC(=O)N[C@@H](CCCCN)C(=O)NCC1CCNCC1` [Example 2, N^α-t-butoxycarbonyl-L-phenylalanyl-L-histidyl-{3S,4S)-4-amino-5-cyclohexyl-3-hydroxy-pentanoyl-L-lysyl-4-(aminomethyl)-piperidinamide dihydrochloride] it was 338 nM; in that of `CN(CCc1ccccn1)C(=O)[C@H](CCCCN)NC(=O)C[C@H](O)[C@H](CC1CCCCC1)NC(=O)[C@H](Cc1c[nH]cn1)NC(=O)[C@H](Cc1ccccc1)NC(=O)OC(C)(C)C` [Example 5, N^α-t-butoxycarbonyl-L-phenylalanyl-L-histidyl-(3S,4S)-4-amino-5-cyclohexyl-3-hydroxypentanoyl-L-lysyl-2-(2-methylaminoethyl)-pyridinamide acetate], 225 nM; in that of `COc1ccc(C[C@H](NC(=O)OC(C)(C)C)C(=O)N[C@@H](Cc2c[nH]cn2)C(=O)N[C@@H](CC2CCCCC2)[C@@H](O)CC(=O)N[C@@H](CCCCN)C(=O)NCc2ccncc2)cc1` [Example 6, N^α-t-butoxycarbonyl-O-methyl-L-tyrosyl-L-histidyl-(3S,4S)-4-amino-5-cyclohexyl-3-hydroxy-pentanoyl-L-lysyl-4-(aminomethyl)pyridine amide], 42 nM.
In the case of `CC(C)(C)OC(=O)N[C@@H](Cc1ccccc1)C(=O)N[C@@H](Cc1c[nH]cn1)C(=O)N[C@@H](CC1CCCCC1)[C@@H](O)CC(=O)N[C@@H](CCCCN)C(=O)N[C@H]1CCCCNC1=O` [Example 9, N^α-t-butoxycarbonyl-L-phenylalanyl-L-histidyl-(3S,4S)-4-amino-5-cyclohexyl-3-hydroxypentanoyl-L-lysyl-L-3-amino-2-oxoazepine amide hydrochloride] it was 26.4 nM; in that of `CC(C)(C)OC(=O)N[C@@H](Cc1ccccc1)C(=O)N[C@@H](Cc1c[nH]cn1)C(=O)N[C@@H](CC1CCCCC1)[C@@H](O)CC(=O)N[C@@H](CN)C(=O)NCc1ccncc1` [Example 10, N^α-t-butoxycarbonyl-L-phenylalanyl-L-histidyl-(3S,4S)-4-amino-5-cyclohexyl-3-hydroxypentanoyl-L-2,4-diaminopropionyl-4-(aminomethyl)pyridine amide hydrochloride], 37 nM.
Take `NCCCC[C@H](NC(=O)C[C@H](O)[C@H](CC1CCCCC1)NC(=O)[C@H](Cc1c[nH]cn1)NC(=O)[C@H](Cc1ccccc1)NC(=O)N1CCOCC1)C(=O)NCc1ccncc1` [Example 23, N-[(Morpholin-4-yl)carbonyl]Phe-His-ACHPA-Lys-NHCH2(pyridin-4-y1)]: the IC50 (in general, the concentration that gives 50% inhibition) worked out at 12 nM.
With `CC(C)(C)OC(=O)NCCOC(=O)N[C@@H](Cc1ccccc1)C(=O)N[C@@H](Cc1c[nH]cn1)C(=O)N[C@@H](CC1CCCCC1)[C@@H](O)CC(=O)N[C@@H](CCCCN)C(=O)NCC1CCNCC1` [Example 26, Boc-NHCH2CH2OCO-Phe-His-ACHPA-Lys-NHCH2(piperidin-4-yl)] the figure was 39 nM; with `CC(C)S(=O)(=O)N[C@@H](Cc1ccccc1)C(=O)N[C@@H](Cc1c[nH]cn1)C(=O)N[C@@H](CC1CCCCC1)[C@@H](O)CC(=O)N[C@@H](CCCCN)C(=O)NCC1CCNCC1` [Example 27, i-PrSO2-Phe-His-ACHPA-Lys-CH2(piperidin-4-yl)], 159 nM; with “N^α-t-butoxycarbonyl-L-phenylalanyl-L-histidyl-(3S,4S)-4-amino-5-cyclohexyl-3-hydroxypentanoyl-L-lysyl-N-(2-aminoethyl)-morpholine amide dihydrochloride [Example 12]”, 68.9 nM.
